From patent US12559474B2, “Triazine derivatives having virus replication inhibitory activity and pharmaceutical composition comprising the same” (priority 2021, dated 2026)
Where two headings read alike, the source gives them in different places.

How the values were obtained:
SARS-CoV-2 = test: microbe, parasite or virus in culture; format: cell-based; conditions: Severe acute respiratory syndrome coronavirus 2, VeroE6/TMPRSS2, 72 h, 50% SARS-CoV-2 infected cell death inhibitory concentration, VeroE6/TMPRSS2 cells, 3 days culture
SARS-CoV-2 3CL protease = SARS-CoV-2 3CL protease (Severe acute respiratory syndrome coronavirus 2, UniProt P0DTD1); test: biochemical; conditions: 50% SARS-CoV-2 3CL protease inhibitory concentration, read-out: IC50

SMILES	EC50 (SARS-CoV-2; class symbols) [nM]	IC50 (SARS-CoV-2 3CL protease; given as class symbols) [nM]	EC50 (SARS-CoV-2; CellTiter-Glo 2.0) [nM]	IC50 (SARS-CoV-2 3CL protease; RapidFire MS) [nM]
COc1ccc(Nc2nc(=O)n(-c3cccnc3)c(=O)n2Cc2cc(F)c(F)c(F)c2)cc1 [Compound I-0135]	1000 to 10000	100 to 1000		
COc1ccc(Nc2nc(=O)n(-c3cncc4ccccc34)c(=O)n2Cc2cc(F)c(F)c(F)c2)cc1 [Compound I-0136]	1000 to 10000	< 100		
COc1ccc(Nc2nc(=O)n(-c3cncc4ccccc34)c(=O)n2Cc2cc(F)c(F)c(F)c2)c(Cl)c1 [Compound I-0152]	< 1000	< 100		
CCc1cc(OC)ccc1Nc1nc(=O)n(Cc2ccc[nH]c2=O)c(=O)n1Cc1cc(F)c(F)c(F)c1 [Compound I-0165]	1000 to 10000	< 100		
COc1ccc(Nc2nc(=O)n(Cc3ccc[nH]c3=O)c(=O)n2Cc2cc(F)c(F)c(F)c2)c(Br)c1 [Compound I-0166]	< 1000	< 100		
O=c1[nH]cccc1Cn1c(=O)nc(N2Cc3ccccc3C2)n(Cc2cc(F)c(F)c(F)c2)c1=O [Compound I-0180]			6410	58
COc1ccc(Nc2nc(=O)n(Cc3ccc[nH]c3=O)c(=O)n2Cc2cc(F)c(F)cc2Cl)cc1 [Compound I-0194]	1000 to 10000	< 100		
COc1ccc(Nc2nc(=O)n(Cc3ccc[nH]c3=O)c(=O)n2Cc2ccc(F)c(Br)c2)cc1 [Compound I-0196]	1000 to 10000	< 100		
COc1ccc(Nc2nc(=O)n(Cc3ccc[nH]c3=O)c(=O)n2Cc2cc(Cl)cc(Cl)c2)cc1 [Compound I-0213]	1000 to 10000	< 100		
COc1ccc(Nc2nc(=O)n(Cc3ccc[nH]c3=O)c(=O)n2Cc2cc(Cl)ccc2Cl)cc1 [Compound I-0214]	< 1000	< 100		
COc1ccc(Nc2nc(=O)n(Cc3ccc[nH]c3=O)c(=O)n2Cc2cc(Cl)c(F)cc2F)cc1 [Compound I-0226]	1000 to 10000	< 100		
COc1ccc(Nc2nc(=O)n(Cc3ccc[nH]c3=O)c(=O)n2Cc2cc(Cl)c(F)c(Cl)c2)cc1 [Compound I-0227]	1000 to 10000	< 100		
COc1ccc(Nc2nc(=O)n(Cc3ccc[nH]c3=O)c(=O)n2Cc2cc(Cl)ccc2F)cc1 [Compound I-0231]	1000 to 10000	< 100		
Cn1cc2cc(Nc3nc(=O)n(Cc4cc5cccnc5[nH]c4=O)c(=O)n3Cc3cc(F)c(F)c(F)c3)c(Cl)cc2n1 [Compound I-0236]	< 1000	< 100		
O=c1[nH]c2ncccc2cc1Cn1c(=O)nc(Nc2cc3cn(CCO)nc3cc2Cl)n(Cc2cc(F)c(F)c(F)c2)c1=O [Compound I-0237]			3390	4.2
O=c1[nH]cccc1Cn1c(=O)nc(Nc2cc3c(cc2Cl)OCC3)n(Cc2cc(F)c(F)c(F)c2)c1=O [Compound I-0239]			225	3.9
CCOc1ccc(Nc2nc(=O)n(Cc3ccc[nH]c3=O)c(=O)n2Cc2cc(F)c(F)c(F)c2)c(Cl)c1 [Compound I-0242]	< 1000	< 100		
COc1cc(Cl)c(Nc2nc(=O)n(Cc3ccc[nH]c3=O)c(=O)n2Cc2cc(F)c(F)c(F)c2)cn1 [Compound I-0245]	1000 to 10000	< 100		
O=c1[nH]cccc1Cn1c(=O)nc(Nc2cc3ccnn3cc2Cl)n(Cc2cc(F)c(F)c(F)c2)c1=O [Compound I-0247]	1000 to 10000		3540	25
COCCCn1cc2cc(Nc3nc(=O)n(Cc4ccc[nH]c4=O)c(=O)n3Cc3cc(F)c(F)c(F)c3)c(Cl)cc2n1 [Compound I-0248]	1000 to 10000	< 100		
O=c1[nH]cccc1Cn1c(=O)nc(Nc2cc3cn(CCN4CCOCC4)nc3cc2Cl)n(Cc2cc(F)c(F)c(F)c2)c1=O [Compound I-0249]	1000 to 10000	< 100		
O=c1[nH]cc(Cl)cc1Cn1c(=O)nc(Nc2cc3cn(CCN4CCOCC4)nc3cc2Cl)n(Cc2cc(F)c(F)c(F)c2)c1=O [Compound I-0250]	1000 to 10000	< 100		
O=c1[nH]cc(Cl)cc1Cn1c(=O)nc(Nc2cc3cn([C@H]4CCC[C@@H]4O)nc3cc2Cl)n(Cc2cc(F)c(F)c(F)c2)c1=O [Compound I-0251]	1000 to 10000	< 100		
COc1ccc(Nc2nc(=O)n(Cc3ccc[nH]c3=O)c(=O)n2Cc2ccc(F)c(Cl)c2)cc1 [Compound I-0252]	1000 to 10000	< 100		
COc1ccc(Nc2nc(=O)n(Cc3ccc[nH]c3=O)c(=O)n2Cc2ccc(F)c(C#N)c2)cc1 [Compound I-0253]	1000 to 10000	< 100		
COc1ccc(Nc2nc(=O)n(Cc3ccc[nH]c3=O)c(=O)n2Cc2cc(F)c(F)c(Cl)c2)cc1 [Compound I-0254]	1000 to 10000	< 100		
COc1ccc(Nc2nc(=O)n(Cc3ccc[nH]c3=O)c(=O)n2Cc2cc(F)c(F)c(Cl)c2)c(Cl)c1 [Compound I-0255]	< 1000	< 100		
